From patent US20240285572A1 (priority 2023, published 2024)

Assays:
[1] = system: human patients having central serous chorioretinopathy (CSCR); test: Central macular thickness by OCT in CSCR patients given isosorbide dinitrate; type: in vivo
Procedure: The nitric-oxide releasing agent isosorbide dinitrate was given orally at 5 mg twice per day dosage for sublingual administration for 7 days for 7 human patients (CL, WZ, XC, LL, BZ, XZ, and LS) having central serous chorioretinopathy (CSCR). Average age of the patients is 41.6 years. 5 men and 2 women were enrolled in this study.

retinal blood flow = conditions: oral; glaucoma patients and diabetics; Zurakowski 1998, Weigert 2008; cited from earlier work
[2] = system: acute central retinal artery occlusion; conditions: sublingual route; cited from earlier work

O=[N+]([O-])O[C@H]1CO[C@H]2[C@@H]1OC[C@H]2O[N+](=O)[O-] [isosorbide dinitrate, 1,4:3,6-dianhydro-2,5-di-O-nitro-D-glucitol]
Central macular OCT thickness, overall change ([1]; 7 human CSCR patients, 5 mg twice per day sublingual for 7 days, 7-10 days after treatment): generalized decrease | Subretinal fluid status after treatment ([1]; patient, eye OD): fluid resolved)

O=[N+]([O-])OCC(CO[N+](=O)[O-])O[N+](=O)[O-] [nitroglycerin, 1,2,3-Tris(nitrooxy)propane]
Retinal blood flow (retinal blood flow): retinal blood flow improves | Treatment outcome in acute central retinal artery occlusion [2]: variable success
